Test results from PubChem BioAssay AID330 (DTP/NCI, 2004).
Toxic doses and inconclusive results are not listed. Peptide text beside a SMILES is read from it. * marks the point of attachment. Cbz = O=C(OCc1ccccc1)*

Tested on: P388 leukemia ip, CD2F1 mice, survival T/C
Experiment: NCI In Vivo Anticancer Drug Screen. Data for tumor model P388 Leukemia (intraperitoneal) in CD2F1 (CDF1) mice
Conditions: endpoint: median survival time, higher = longer survival
Outline: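 Mice carrying the transplanted tumor received test compound or vehicle. Survival was recorded in each group, and the value is the treated-group measurement divided by that of the vehicle-treated control group.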

[1] = dose: 50.0 mg/kg/injection, schedule: Q01DX009 (ip), vehicle: saline
[2] = dose: 100.0 mg/kg/injection, schedule: Q01DX009 (ip), vehicle: saline
[3] = dose: 200.0 mg/kg/injection, schedule: Q01DX009 (ip), vehicle: saline

Nc1ccccc1SCc1csc(-c2ccc(Cl)cc2)n1
T/C [1]: 103 % of control
T/C [2]: 114 % of control
T/C [3]: 109 % of control

S=c1ncn(C2CCCC2)c(=S)[nH]1
T/C (dose: 50.0 mg/kg/injection, schedule: Q01DX005 (ip), vehicle: Klucel (hydroxypropylcellulose) (HPC)): 93 % of control
T/C (dose: 100.0 mg/kg/injection, schedule: Q01DX005 (ip), vehicle: Klucel (hydroxypropylcellulose) (HPC)): 103 % of control
T/C (dose: 200.0 mg/kg/injection, schedule: Q01DX005 (ip), vehicle: Klucel (hydroxypropylcellulose) (HPC)): 100 % of control

O=C(OC1CCC2(CC1)SCCS2)c1ccccc1
T/C (dose: 100.0 mg/kg/injection, schedule: Q04DX003 (ip), vehicle: saline with Tween-80): 100 % of control
T/C (dose: 200.0 mg/kg/injection, schedule: Q04DX003 (ip), vehicle: saline with Tween-80): 100 % of control
T/C (dose: 400.0 mg/kg/injection, schedule: Q04DX003 (ip), vehicle: saline with Tween-80): 104 % of control

CCN(CCO)CC1CCCC2CCCCC21 (configuration not stated)
T/C (dose: 60.0 mg/kg/injection, schedule: Q01DX005 (ip), vehicle: saline): 92 % of control
T/C (dose: 120.0 mg/kg/injection, schedule: Q01DX005 (ip), vehicle: saline): 98 % of control

CC(C)=CC1OC2CC3(C)C4=C(CCC3(C)C2C(C)C1O)C1(C)CCC(O)C(C)(C)C1CC4 (configuration not stated)
T/C (dose: 15.0 mg/kg/injection, schedule: Q01DX009 (ip), vehicle: saline): 98 % of control
T/C (dose: 30.0 mg/kg/injection, schedule: Q01DX009 (ip), vehicle: saline): 102 % of control
T/C (dose: 60.0 mg/kg/injection, schedule: Q01DX009 (ip), vehicle: saline): 100 % of control

O=C(NC(Cc1ccccc1)C(=O)O)c1cccnc1 (configuration not stated)
T/C (dose: 25.0 mg/kg/injection, schedule: Q04DX002 (ip), vehicle: Klucel (hydroxypropylcellulose) (HPC)): 100 % of control
T/C (dose: 52.0 mg/kg/injection, schedule: Q04DX002 (ip), vehicle: Klucel (hydroxypropylcellulose) (HPC)): 102 % of control
T/C (dose: 100.0 mg/kg/injection, schedule: Q04DX002 (ip), vehicle: Klucel (hydroxypropylcellulose) (HPC)): 96 % of control
T/C (dose: 200.0 mg/kg/injection, schedule: Q04DX002 (ip), vehicle: Klucel (hydroxypropylcellulose) (HPC)): 100 % of control

COc1cccc2c1C(=O)c1c(O)c3c(c(O)c1C2=O)C[C@@](O)(/C(C)=N\NC(N)=O)C[C@@H]3OC1CC(N)C(O)C(C)O1 (some centres not stated)
T/C (dose: 1.56 mg/kg/injection, schedule: Q01DX009 (ip), vehicle: saline): 95 % of control

C/C=C(/CN/C(=C\[N+](=O)[O-])c1ccccc1)c1ccccc1
T/C (dose: 60.0 mg/kg/injection, schedule: Q01DX005 (ip), vehicle: saline with Tween-80): 102 % of control
T/C (dose: 120.0 mg/kg/injection, schedule: Q01DX005 (ip), vehicle: saline with Tween-80): 100 % of control
T/C (dose: 240.0 mg/kg/injection, schedule: Q01DX005 (ip), vehicle: saline with Tween-80): 95 % of control

CSCCC(NC(=O)C(Cc1ccccc1)NC(=O)OCc1ccccc1)C(=O)O (stereo not drawn) (Cbz-Phe-Met-OH; configuration not given here)
T/C (dose: 50.0 mg/kg/injection, schedule: Q01DX005 (ip), vehicle: saline with Tween-80): 104 % of control
T/C (dose: 100.0 mg/kg/injection, schedule: Q01DX005 (ip), vehicle: saline with Tween-80): 105 % of control
T/C (dose: 200.0 mg/kg/injection, schedule: Q01DX005 (ip), vehicle: saline with Tween-80): 97 % of control

Oc1cncc2ncccc12
T/C [1]: 106 % of control
T/C [2]: 100 % of control
T/C [3]: 100 % of control

CCC1(c2ccccc2)CCCC(C(N)=O)C1=O (configuration not stated)
T/C (dose: 100.0 mg/kg/injection, schedule: Q01DX001 (ip), vehicle: Klucel (hydroxypropylcellulose) (HPC)): 100 % of control
T/C (dose: 200.0 mg/kg/injection, schedule: Q01DX001 (ip), vehicle: Klucel (hydroxypropylcellulose) (HPC)): 99 % of control
T/C (dose: 400.0 mg/kg/injection, schedule: Q01DX001 (ip), vehicle: Klucel (hydroxypropylcellulose) (HPC)): 101 % of control

CCN(CC)C/C=C(/C)CCC=C(C)C
T/C (dose: 5.0 mg/kg/injection, schedule: Q04DX002 (ip), vehicle: saline with Tween-80): 103 % of control
T/C (dose: 10.0 mg/kg/injection, schedule: Q04DX002 (ip), vehicle: saline with Tween-80): 99 % of control
T/C (dose: 20.0 mg/kg/injection, schedule: Q04DX002 (ip), vehicle: saline with Tween-80): 95 % of control

Cc1cc(C)n(-c2ccnc(-n3nc(C)cc3C)n2)n1
T/C (dose: 100.0 mg/kg/injection, schedule: Q04DX003 (ip), vehicle: saline): 104 % of control
T/C (dose: 200.0 mg/kg/injection, schedule: Q04DX003 (ip), vehicle: saline): 114 % of control
T/C (dose: 400.0 mg/kg/injection, schedule: Q04DX003 (ip), vehicle: saline): 101 % of control

C/C=C1\CC2(OC1=O)C(=O)NC(=O)NC2=O
T/C [1]: 103 % of control
T/C [2]: 94 % of control

Cc1cc(Cl)c2ccc(N(C)C)cc2n1
T/C (dose: 50.0 mg/kg/injection, schedule: Q01DX009 (ip), vehicle: saline with Tween-80): 119 % of control
T/C (dose: 100.0 mg/kg/injection, schedule: Q01DX009 (ip), vehicle: saline with Tween-80): 112 % of control
T/C (dose: 200.0 mg/kg/injection, schedule: Q01DX009 (ip), vehicle: saline with Tween-80): 110 % of control
